Measurements taken from patent publication US11225504B2, “Functional polypeptide and its application thereof in preparing medicament for preventing and treating pulmonary fibrosis” (Guangdong Medical University, priority 2017, dated 2022).
Residues, ends and D or L forms follow the SMILES beside them.

Key:
[1] = system: human normal lung epithelial cell BEAS-2B; assay: Growth effects on human normal lung epithelial cell BEAS-2B (FIG. 4); type: cell-based
[2] = system: bleomycin-induced pulmonary fibrosis; assay: Prevention and treatment of pulmonary fibrosis IPF experiment (bleomycin-induced, mice); type: in vivo, C57 mice
Method: (1) Animals: SPF grade C57 mice, 22 g±2 g, 60 mice, females. The mice was divided into the following groups using the random digits table: the control group, the model group, the pirfenidone group (50 mg/kg), the EZY-1 polypeptide low dose group (0.25 mg/kg), the EZY-1 polypeptide medium dose group (0.5 mg/kg), the EZY-1 polypeptide high dose group (1.0 mg/kg), 10 animals per group. (3) After the mice were anesthetized by intraperitoneal injection of 1% sodium pentobarbital at a dose of 50 mg/kg, they are fixed to the operation console on their back. Their tongues were pulled out with tweezers to expose the trachea, and 5 mg/kg Bleomycin was slowly injected under a cold light source magnifying glass. Immediately after the injection, the operation console was erected and rotated for 3 minutes to evenly distribute the drug solution in the lungs. The control group was injected with an equal volume of isotonic saline in the same way as the previous method. After 10 days, the mice were intra-gastrically administered with 0.1 ml/10 g with drugs. The control group and the model group were intra-gastrically administered with an equal volume of isotonic saline. The other groups were intra-gastrically administered with the corresponding dose of the drug for 35 days, once a day. After 35 days of drug administration, the mice were anesthetized and sacrificed, and the two intact lung tissues were isolated and weighed. The same part of the right upper lobe was taken, fixed with 4% paraformaldehyde for 48 hours, and paraffin sections were generated for Hematoxylin-Eosin (HE) staining for histopathological observations. The same part of the […] was taken for the measurement of HYP content in the lung tissue. Plasma was collected for the measurement of T-SOD, MDA, and GSH-PX levels. Statistical analysis was performed using SPSS 17.0 software. Measurement data were expressed as mean±standard deviation (x±s). Comparison of the means in multiple samples was performed by one-way ANOVA. Comparison between groups was performed by t test, with P≤0.05 indicating statistically significant differences.

[3] = 50 mg/kg intragastric once a day for 35 days, bleomycin mice, mean ± SD

SMILES | toxicity to normal cells (growth of BEAS-2B) [1] | GSH-PX (plasma) [2, 3] | HYP (lung tissue) [2, 3] | MDA (plasma) [2, 3] | T-SOD (plasma) [2, 3] | pathological changes of lung tissue (HE staining, FIG. 5) ([2]; EZY-1 low, medium and high dose (0.25, 0.5, 1.0 mg/kg), pirfenidone 50 mg/kg, 35 days)
CC[C@H](C)[C@H](NC(=O)CNC(=O)[C@H](CC(N)=O)NC(=O)[C@H](Cc1ccc(O)cc1)NC(=O)[C@@H](NC(=O)[C@@H](NC(=O)[C@H](CS)NC(=O)[C@H](Cc1ccccc1)NC(=O)[C@H](CS)NC(=O)[C@H](C)NC(=O)CNC(=O)[C@@H](NC(=O)[C@@H](N)CCCNC(=N)N)[C@@H](C)O)C(C)C)[C@@H](C)CC)C(=O)N[C@@H](CC(C)C)C(=O)N[C@@H](Cc1ccc(O)cc1)C(=O)N1CCC[C@H]1C(=O)O [EZY-1 polypeptide, RTGACFCVIYNGILYP] (H-RTGACFCVIYNGILYP-OH) | low toxicity to normal cells |  |  |  |  | 
Cc1ccc(=O)n(-c2ccccc2)c1 [pirfenidone] |  | 672.92 ± 98.72 active unit | 48.36 ± 5.01 μg/g lung tissues Wet weight | 6.52 ± 0.71 nmal/mL | 156.05 ± 17.32 U/mL | reduce alveolar structural damage, reduce collagen fiber production, and inhibit the inflammatory cell infiltration
